Measured values published in US7060501B2 (priority 2002, dated 2006).

Experiments:
[1] = tested on: transgenic OPH and control callus cells; assay: Growth of callus cultures on haloxon plates (prospective Example 9, FIG. 6); format: cell-based; settings: haloxon 1, 5, 10, 50, 100 and 500 μM, six weeks, percentage growth compared to control
[2] = target: organophosphate hydrolase (Brevundimonas diminuta, UniProt P0A434); settings: cited from earlier work
[3] = tested on: organophosphate hydrolase in maize callus; assay: Coumaphos plate screen: fluorescence of maize callus under ultraviolet light; format: cell-based; settings: 3 ml of 1 mg/ml coumaphos per plate, two days post-transfer
[4] = tested on: maize callus; format: cell-based
[5] = tested on: organophosphate hydrolase; format: biochemical; settings: 0.5 mM amiprophos-methyl, 2 μg organophosphate hydrolase, scans every 30 seconds

## Cc1c(Cl)c(=O)oc2cc(OP(=O)(OCCCl)OCCCl)ccc12 [haloxon]
[1]
  growth of transgenic OPH cells versus control cultures: ability of the transgenic OPH cells to grow at concentrations where control cultures would not

## COP(=O)(NC(C)=O)SC (stereo not drawn) [acephate]
[2]
  rate of hydrolysis by organophosphate hydrolase compared with strong alkaline / non-enzymatic hydrolysis: thousands of times greater

## CCOP(=S)(OCC)Oc1ccc2c(C)c(Cl)c(=O)oc2c1 [coumaphos]
[3]; non-transformed callus
  fluorescence of non-transformed callus under ultraviolet light: did not
[3]; transformed callus
  fluorescence of transformed callus under ultraviolet light: fluoresced
[4]
  effect on new growth from maize callus: inhibitory effect

## COP(=S)(NC(C)C)Oc1ccc(C)cc1[N+](=O)[O-] (stereo not drawn) [amiprophos-methyl]
[5]
  cleavage by organophosphate hydrolase, detected by absorbance: results in the absorbance of light
[4]
  effect on new growth from maize callus: inhibitory effect

## demeton-S-methyl
[2]
  rate of hydrolysis by organophosphate hydrolase compared with strong alkaline / non-enzymatic hydrolysis: thousands of times greater

## CCOC(=O)CC(SP(=S)(OC)OC)C(=O)OCC (stereo not drawn) [malathion]
[2]
  capability of the enzyme for hydrolysis: poor capability
  rate of hydrolysis by organophosphate hydrolase compared with strong alkaline / non-enzymatic hydrolysis: significantly better

## CCCOP(=S)(OCCC)SCC(=O)N1CCCCC1C (stereo not drawn) [piperophos]
[4]
  effect on new growth from maize callus: inhibitory effect

## CCOP(=S)(OCC)SCn1c(=O)oc2cc(Cl)ccc21 [phosalone]
[2]
  rate of hydrolysis by organophosphate hydrolase compared with strong alkaline / non-enzymatic hydrolysis: thousands of times greater
